Data as given in patent US20220378790A1, “PHARMACEUTICAL PREPARATION COMPRISING AN AMIDE DERIVATIVE INHIBITING THE GROWTH OF CANCER CELL AND A PHARMACEUTICAL PRODUCT CONTAINING THE SAME” (Hanmi Pharm Co., Ltd., priority 2019, published 2022).

Assay: Stability test at 60° C. severe condition, impurity IV
Assay type: physicochemical
Experimental: The stability of the tablets of Examples 6 to 9 and Comparative Example 9 above was evaluated. In addition, the stability was evaluated using HM781-36B itself as Comparative Example 11.
Specifically, each of the tablets of Examples 6 to 9 and Comparative Example 9 above was packaged with Formpack® Dessiflex Blister (where to get: amcor), and the HM781-36B of Comparative Example 11 was packaged in an HDPE bottle, and then these were stored for 1, 2, and 4 weeks at a temperature of 60° C., which is a severe condition. The stability evaluation was performed for the samples stored for the above period according to the analysis conditions of Experimental Example 6.

Amount of Impurity IV (1 week, 60° C.): 0.06% | Amount of Impurity IV (2 weeks, 60° C.): 0.07% | Stability (in words) (4 weeks under severe conditions, 60° C.): very stable results | Amount of Impurity IV (4 weeks, 60° C.): 0.07% | Amount of Impurity IV (Initial, tablets in Formpack Dessiflex Blister, HM781-36B in HDPE bottle): 0.06%
SMILES: C=CC(=O)N1CCC(Oc2cc3c(Nc4ccc(Cl)c(Cl)c4F)ncnc3cc2OC)CC1 [Comparative Example 11]
